Data reported in patent publication US9796753B2, “N-substituted indenoisoquinolines and syntheses thereof” (Purdue Research Foundation, priority 2005, dated 2017).
Where two headings read alike, the source gives them in different places.

Tests used:
Type in all cases: cell-based
[1] = system: colon HCT-116; experiment: COMPARE screening (NCI human cancer cell line screen), cytotoxicity GI50
Protocol: (§1) Selected compounds were tested for antiproliferative activity in the National Cancer Institute's developmental therapeutics assay 60 cell line screen (NCI60). The cells were incubated with the tested compounds at 100, 10, 1, 0.1, and 0.01 μM concentrations for 48 h before treatment with sulforhodamine B dye. Optical densities were recorded, and their ratios relative to that of the control were plotted as percentage growth against the log 10 of the tested compound concentrations.

[2] = system: lung HOP-62; experiment: as above
Protocol: as §1

[3] = system: melanoma UACC-62; experiment: as above
Protocol: as §1

[4] = system: renal SN12C; experiment: as above
Protocol: as §1

[5] = system: breast MDA-MB-435; experiment: as above
[6] = system: all human cancer cell lines successfully tested; experiment: NCI screen mean graph midpoint (MGM) for growth inhibition
Protocol: COMPARE screening. The compounds described herein were examined for antiproliferative activity against the human cancer cell lines in the National Cancer Institute screen (COMPARE screening), in which the activity of each compound was evaluated with approximately 55 different cancer cell lines of diverse tumor origins. […] Therefore, the MGM value represents an overall assessment of toxicity of the compound across numerous cell lines.
as §1
The cytotoxicities of the compounds to cultured cancer cells were measured in the National Cancer Institute's 60 cell line assay (a.k.a. NCI-60).

[7] = system: ovarian OVCAR-3; experiment: COMPARE screening (NCI human cancer cell line screen), cytotoxicity GI50
Protocol: as §1

[8] = system: prostate DU-145; experiment: as above
Protocol: as §1

[9] = all human cancer cell lines successfully tested
[10] = Table 1, average GI50 of all cell lines tested (approximately 55), test range 10^−8 to 10^−4 molar

| Structure (SMILES) | GI50 [1] | GI50 [2] | GI50 [3] | GI50 [4] | GI50 [5] | MGM (mean GI50 across cell lines) [6, 9] | GI50 [7] | MGM (mean GI50 across cell lines) [6, 10] | MGM (mean graph midpoint for growth inhibition) [6, 10] | GI50 [8] | MGM (mean graph midpoint for growth inhibition) [6, 9] | GI50 ([1]; Homo sapiens, HCT-116, read-out: cytotoxicity (GI50) colon HCT-116) | GI50 ([2]; Homo sapiens, HOP-62, read-out: cytotoxicity (GI50) lung HOP-62) | GI50 ([3]; Homo sapiens, UACC-62, read-out: cytotoxicity (GI50) melanoma UACC-62) | GI50 ([7]; Homo sapiens, OVCAR-3, read-out: cytotoxicity (GI50) ovarian OVCAR-3) | GI50 ([8]; Homo sapiens, DU-145, read-out: cytotoxicity (GI50) prostate DU-145) | GI50 ([4]; Homo sapiens, SN12C, read-out: cytotoxicity (GI50) renal SN12C) | GI50 ([5]; Homo sapiens, MDA-MB-435, read-out: cytotoxicity (GI50) breast MDA-MB-435) |
| --- | --- | --- | --- | --- | --- | --- | --- | --- | --- | --- | --- | --- | --- | --- | --- | --- | --- | --- |
| COc1cc2c3c(n(CCCN(CCCN(CCCn4c5c(c6ccccc6c4=O)C(=O)c4ccccc4-5)C(=O)OC(C)(C)C)C(=O)OC(C)(C)C)c(=O)c2cc1OC)-c1cc2c(cc1C3=O)OCO2 [Compound 16a, 1,3-{6-(3-tert-Butyloxycarbonylamino-1-propyl)-5,6-dihydro-2,3-dimethoxy-8,9-methylenedioxy-5,11-dioxo-11H-indeno[1,2-c]isoquinoline}-{5′,6′-dihydro-6′-[(3′-tert-butyloxycarbonylamino)-1′-propyl]-5′,11′-dioxo-11′H-indeno[1,2-c]isoquinoline}propane] | > 100000 nM | > 100000 nM | > 100000 nM | > 100000 nM | > 100000 nM | 68000 nM |  |  |  |  |  |  |  |  |  |  |  |  |
| CN(C)CCCn1c2c(c3ccc([N+](=O)[O-])cc3c1=O)C(=O)c1ccccc1-2 [Compound 5c] | 6460 nM |  | 7080 nM | 4170 nM | > 100000 nM |  | 25700 nM | 9770 nM |  |  |  |  |  |  |  |  |  |  |
| COc1cc2c3c(n(CCCn4ccnc4)c(=O)c2cc1OC)-c1cc2c(cc1C3=O)OCO2.Cl [Compound 5l] |  |  |  |  |  |  |  |  | 0.079 ± 0.023 µM |  |  |  |  |  |  |  |  |  |
| O=C(O)C(F)(F)F.O=C(O)C(F)(F)F.O=C1c2ccccc2-c2c1c1ccccc1c(=O)n2CCCNCCNCCCn1c2c(c3ccccc3c1=O)C(=O)c1ccccc1-2 [Compound 14e, Bis-1,2-{(5,6-dihydro-5,11-diketo-11H-indeno[1,2-c]isoquinoline)-6-propylamino}ethane Bis(trifluoroacetate)] | < 10 nM | < 10 nM | 52 nM | < 10 nM | 933 nM |  | 1020 nM |  |  | < 10 nM | 0.152 ± 0.062 µM |  |  |  |  |  |  |  |
| O=C1c2ccccc2-c2c1c1ccc([N+](=O)[O-])cc1c(=O)n2CCN1CCOCC1 [Compound 5i, 5,6-Dihydro-6-(2-morpholin-4-yl-1-ethyl)-3-nitro-5,11-dioxo-11H-indeno[1,2-c]isoquinoline] |  |  |  |  |  |  |  | 74100 nM |  |  |  | > 100000 nM | 52500 nM | 83200 nM | > 100000 nM | 61700 nM | 58900 nM | > 100000 nM |
| O=C(O)C(F)(F)F.O=C(O)C(F)(F)F.O=C1c2ccccc2-c2c1c1ccccc1c(=O)n2CCNCCNCCn1c2c(c3ccccc3c1=O)C(=O)c1ccccc1-2 [Compound 14c, Bis-1,2-{(5,6-dihydro-5,11-diketo-11H-indeno[1,2-c]isoquinoline)-6-ethylamino}ethane Bis(trifluoroacetate)] | 29 nM | 32 nM | 331 nM | 178 nM | 1660 nM |  | 1660 nM |  |  | 182 nM | 0.427 ± 0.01 µM |  |  |  |  |  |  |  |
| Cl.O=C1c2ccccc2-c2c1c1ccccc1c(=O)n2CCCCNCCCn1c2c(c3ccccc3c1=O)C(=O)c1ccccc1-2 [Compound 14b, Bis{(5,6-dihydro-5,11-diketo-11H-indeno[1,2-c]isoquinoline)}-(6-propyl,6′-butyl)amine Hydrochloride] | 56 nM | 28 nM | 513 nM | 132 nM | 562 nM |  | 372 nM |  |  | 288 nM | 0.357 ± 0.087 µM |  |  |  |  |  |  |  |
| COc1ccc2c(c1)C(=O)c1c-2n(CCCN2CCOCC2)c(=O)c2cc([N+](=O)[O-])ccc12 [Compound 5bj] | < 10 nM | < 10 nM | < 10 nM | < 10 nM | < 10 nM |  | < 10 nM |  | 0.014 ± 0.001 µM |  |  |  |  |  |  |  |  |  |
| CN(C)CCCn1c2c(c3ccccc3c1=O)C(=O)c1ccccc1-2 [Compound 5d] | 580 nM |  | 510 nM | 910 nM | 2820 nM |  | 1700 nM |  |  | 1320 nM |  |  |  |  |  |  |  |  |
